IC50 data for 22 molecules are collected here from patent US7994172B2, “[1H-pyrazolo[3, 4-D]pyrimidin-4-yl]-piperidine or -piperazine compounds as serine-theoronine kinase modulators (P70s6k, Atk1 and Atk2) for the treatment of immunological, inflammatory and proliferative diseases” (Exelixis, Inc., priority 2004, dated 2011).

One may read the IC50 as the concentration needed to halve the response being measured.

What all share (format): biochemical
Assay [1] has as its target T1, human Akt2 kinase (kinase domain residues K146-R480) (Homo sapiens, UniProt P31751).
T1 construct: human Akt2 kinase domain residues K146-R480; made in house
In words: Akt2 kinase assay, Luciferase-Coupled Chemiluminescent Kinase assay (LCCA). Conditions: 2 μM ATP, 10 nM Akt2; read-out: Akt-2 inhibition IC50. As for the experimental part: Kinase activity and compound inhibition are investigated using one or more of the three assay formats described below. The ATP concentrations for each assay are selected to be close to the Michaelis-Menten constant (KM) for each individual kinase. Dose-response experiments are performed at 10 different inhibitor concentrations in a 384-well plate format. The data are fitted to four-parameter equation (2) below; where Y is the observed signal, X is the inhibitor concentration, Min is the background signal in the absence of enzyme (0% enzyme activity), Max is the signal in the absence of inhibitor (100% enzyme activity), IC50 is the inhibitor concentration at 50% enzyme inhibition and H represents the empirical Hill's slope to measure the cooperativity. Typically H is close to unity. Y=Min+(Max−Min)/(1+(X/IC50)^H) Equation (2) p70S6 Kinase Assay
Biochemical activity of Akt2 kinase was assessed using a Luciferase-Coupled Chemiluminescent Kinase assay (LCCA) format. Kinase activity was measured as the percent ATP remaining following the kinase reaction. Remaining ATP was detected by luciferase-luciferin-coupled chemiluminescence. Specifically, the reaction was initiated by mixing test compounds, 2 μM ATP, 5 μM crosstide peptide and 10 nM Akt2 (baculovirus expressed human Akt2 kinase domain residues K146-R480) in a 20 uL assay buffer (20 mM Tris-HCL pH 7.5, 10 mM MgCl2, 0.03% Triton X-100, 1 mM DTT, 3 mM MnCl2). The mixture is incubated at ambient temperature for 2 hours after which 20 μL luciferase-luciferin mix is added and the chemiluminescent signal read using a Wallac Victor2 reader. The luciferase-luciferin mix consists of 50 mM HEPES, pH 7.8, 8.5 μg/mL oxalic acid (pH 7.8), 5 (or 50) mM DTT, 0.4% Triton X-100, 0.25 mg/mL coenzyme A, 63 uM AMP, 28 μg/mL luciferin and 40,000 units/mL luciferase.

Assay [2] has as its target T2, human Akt1 kinase (kinase domain residues R144-A480, activated with PDK1) (Homo sapiens, UniProt P31749).
T2 construct: made in house
The assay can be described thus: Akt1 kinase assay, Luciferase-Coupled Chemiluminescent Kinase assay (LCCA). Conditions: 1 μM ATP, 1.3 nM Akt1; read-out: Akt-1 inhibition IC50. In a few lines: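 Baculovirus-expressed PDK1-activated Akt1 kinase domain (R144-A480), 1.3 nM, with 5 μM crosstide and 1 μM ATP in Tris pH 7.5 with MgCl2/MnCl2, 3 h at ambient temperature. Remaining ATP read by luciferase-luciferin chemiluminescence; 10-point IC50 from four-parameter fit.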

The target in assay [3] is T3, human p70S6 kinase (p70S6K, kinase domain residues 1-421, T412E mutation) (Homo sapiens, UniProt P23443, T412E).
T3 construct: human p70S6 kinase domainresidues 1-421, containing a T412E mutation; made in house
T3 sequence (P23443 1-421 T412E): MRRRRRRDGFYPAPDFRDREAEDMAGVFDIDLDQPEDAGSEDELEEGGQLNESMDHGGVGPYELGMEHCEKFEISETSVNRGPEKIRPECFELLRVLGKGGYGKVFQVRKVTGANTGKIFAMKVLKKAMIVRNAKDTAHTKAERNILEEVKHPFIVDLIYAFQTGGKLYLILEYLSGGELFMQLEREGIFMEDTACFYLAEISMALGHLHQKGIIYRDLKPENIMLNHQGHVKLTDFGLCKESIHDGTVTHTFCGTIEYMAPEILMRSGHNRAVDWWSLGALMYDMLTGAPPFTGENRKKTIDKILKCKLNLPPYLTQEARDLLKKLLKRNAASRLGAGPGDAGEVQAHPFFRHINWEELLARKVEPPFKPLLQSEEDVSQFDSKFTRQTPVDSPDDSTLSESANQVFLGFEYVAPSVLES
In words: p70S6 kinase assay, Luciferase-Coupled Chemiluminescent Kinase assay (LCCA). Conditions: 5 μM ATP, 12 nM p70S6K; read-out: p70S6K inhibition IC50. The essentials:
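Baculovirus-expressed kinase domain (12 nM) reacted 2 h at ambient temperature with 5 μM ATP and 5 μM RRRLSSLRA peptide. Buffer was Tris pH 7.5 with MgCl2, MnCl2, DTT and Triton X-100. Remaining ATP was read by luciferase-luciferin chemiluminescence. IC50 came from 10-point dose-response with a four-parameter Hill fit.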

Structures are written as SMILES.

T2 sequence (P31749 144-480): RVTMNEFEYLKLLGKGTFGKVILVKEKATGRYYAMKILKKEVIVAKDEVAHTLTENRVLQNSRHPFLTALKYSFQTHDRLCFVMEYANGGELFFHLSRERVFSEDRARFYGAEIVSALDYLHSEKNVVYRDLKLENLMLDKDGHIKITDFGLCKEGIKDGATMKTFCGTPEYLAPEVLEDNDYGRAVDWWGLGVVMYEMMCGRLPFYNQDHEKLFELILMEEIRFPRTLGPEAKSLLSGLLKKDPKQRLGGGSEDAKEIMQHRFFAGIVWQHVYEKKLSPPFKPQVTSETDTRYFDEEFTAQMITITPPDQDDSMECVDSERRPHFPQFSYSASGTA
T1 sequence (P31751 146-480): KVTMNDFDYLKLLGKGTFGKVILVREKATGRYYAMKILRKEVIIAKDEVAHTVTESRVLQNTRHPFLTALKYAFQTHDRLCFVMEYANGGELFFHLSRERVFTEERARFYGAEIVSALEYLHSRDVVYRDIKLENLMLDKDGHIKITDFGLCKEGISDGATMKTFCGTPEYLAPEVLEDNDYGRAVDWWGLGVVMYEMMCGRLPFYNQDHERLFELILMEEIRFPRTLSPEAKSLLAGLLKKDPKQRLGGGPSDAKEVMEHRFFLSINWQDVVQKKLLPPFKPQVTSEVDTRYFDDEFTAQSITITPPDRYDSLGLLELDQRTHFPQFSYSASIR

With `Brc1n[nH]c2ncnc(N3CCN(Cc4ccc5c(c4)OCO5)CC3)c12` [Entry 37, 4-[4-(1,3-benzodioxol-5-ylmethyl)piperazin-1-yl]-3-bromo-1H-pyrazolo[3,4-d]pyrimidine], the concentration for half-maximal inhibition (IC50) is greater than 2000 nM in assay [1], 500 to 2000 nM in assay [2] and less than 50 nM in assay [3].

For the molecule `O=C(c1ccc(Cl)cc1)C1CCN(c2ncnc3[nH]nc(Br)c23)CC1` [Entry 38, [1-(3-bromo-1H-pyrazolo[3,4-d]pyrimidin-4-yl)piperidin-4-yl](4-chlorophenyl)methanone], the concentration for half-maximal inhibition (IC50) was greater than 2000 nM in assay [1], 500 to 2000 nM in assay [2] and less than 50 nM in assay [3].

On to `Brc1n[nH]c2ncnc(N3CCN(Cc4ccc(Oc5ccccc5)cc4)CC3)c12` [Entry 39, 3-bromo-4-(4-{[4-(phenyloxy)phenyl]methyl}piperazin-1-yl)-1H-pyrazolo[3,4-d]pyrimidine], for which the 50% inhibitory concentration (IC50) in assay [1] is greater than 2000 nM; in assay [2] it was greater than 2000 nM; in assay [3], less than 50 nM.

In the case of `CN(C)c1ccc(CN2CCN(c3ncnc4[nH]nc(Br)c34)CC2)cc1` [Entry 41, 4-{[4-(3-bromo-1H-pyrazolo[3,4-d]pyrimidin-4-yl)piperazin-1-yl]methyl}-N,N-dimethylaniline], the IC50 in assay [1] was greater than 2000 nM; in assay [2], greater than 2000 nM; in assay [3] it was less than 50 nM.

Turning to `O=C(/C=C/c1ccccc1)N1CCN(c2ncnc3[nH]nc(Br)c23)CC1` [Entry 43, 3-bromo-4-{4-[(2E)-3-phenylprop-2-enoyl]piperazin-1-yl}-1H-pyrazolo[3,4-d]pyrimidine], the concentration for half-maximal inhibition (IC50) is greater than 2000 nM in assay [1], greater than 2000 nM in assay [2] and less than 50 nM in assay [3].

Turning to `Brc1ccccc1CN1CCN(c2ncnc3[nH]nc(Br)c23)CC1` [Entry 45, 3-bromo-4-{4-[(2-bromophenyl)methyl]piperazin-1-yl}-1H-pyrazolo[3,4-d]pyrimidine], the figures for the IC50 in assay [1], in assay [2] and in assay [3] were greater than 2000 nM, greater than 2000 nM and less than 50 nM, respectively.

On to `Clc1ccccc1CN1CCN(c2ncnc3[nH]nc(Br)c23)CC1` [Entry 46, 3-bromo-4-{4-[(2-chlorophenyl)methyl]piperazin-1-yl}-1H-pyrazolo[3,4-d]pyrimidine], for which the IC50 in assay [1] is greater than 2000 nM; in assay [2], greater than 2000 nM; in assay [3] it was less than 50 nM.

For the molecule `Clc1ccc(CN2CCN(c3ncnc4[nH]nc(Br)c34)CC2)c(Cl)c1` [Entry 47, 3-bromo-4-{4-[(2,4-dichlorophenyl)methyl]piperazin-1-yl}-1H-pyrazolo[3,4-d]pyrimidine], the half-maximal inhibitory concentration (IC50) in assay [1] was greater than 2000 nM; in assay [2], 500 to 2000 nM; in assay [3] it was less than 50 nM.

For the molecule `Fc1ccc(CN2CCN(c3ncnc4[nH]nc(Br)c34)CC2)c(Cl)c1` [Entry 48, 3-bromo-4-{4-[(2-chloro-4-fluorophenyl)methyl]piperazin-1-yl}-1H-pyrazolo[3,4-d]pyrimidine], the IC50 in assay [1] was greater than 2000 nM; in assay [2] it was greater than 2000 nM; in assay [3], less than 50 nM.

As to `Brc1n[nH]c2ncnc(N3CCN(Cc4ccccc4)CC3)c12` [Entry 50, 3-bromo-4-[4-(phenylmethyl)piperazin-1-yl]-1H-pyrazolo[3,4-d]pyrimidine], the IC50 in assay [1] was greater than 2000 nM; in assay [2], greater than 2000 nM; in assay [3], 50 to 500 nM.

`O=C(CN1CCN(c2ncnc3[nH]nc(Br)c23)CC1)Nc1ccccn1` [Entry 51, 2-[4-(3-bromo-1H-pyrazolo[3,4-d]pyrimidin-4-yl)piperazin-1-yl]-N-pyridin-2-ylacetamide]: the IC50 is greater than 2000 nM in assay [1], greater than 2000 nM in assay [2] and 50 to 500 nM in assay [3].

Take `Brc1n[nH]c2ncnc(N3CCN(Cc4ncc[nH]4)CC3)c12` [Entry 52, 3-bromo-4-[4-(1H-imidazol-2-ylmethyl)piperazin-1-yl]-1H-pyrazolo[3,4-d]pyrimidine]: the half-inhibitory concentration (IC50) in assay [1] is greater than 2000 nM; in assay [2] it was greater than 2000 nM; in assay [3], 50 to 500 nM.

Turning to `Brc1n[nH]c2ncnc(N3CCN(Cc4cccc(Oc5ccccc5)c4)CC3)c12` [Entry 53, 3-bromo-4-(4-{[3-(phenyloxy)phenyl]methyl}piperazin-1-yl)-1H-pyrazolo[3,4-d]pyrimidine], the IC50 in assay [1] was greater than 2000 nM; in assay [2], greater than 2000 nM; in assay [3] it was 50 to 500 nM.

In the case of `Cc1cccc(CN2CCN(c3ncnc4[nH]nc(Br)c34)CC2)c1` [Entry 54, 3-bromo-4-{4-[(3-methylphenyl)methyl]piperazin-1-yl}-1H-pyrazolo[3,4-d]pyrimidine], the IC50 in assay [1] is greater than 2000 nM; in assay [2] it was greater than 2000 nM; in assay [3], 50 to 500 nM.

As for `N#Cc1cccc(CN2CCN(c3ncnc4[nH]nc(Br)c34)CC2)c1` [Entry 55, 3-{[4-(3-bromo-1H-pyrazolo[3,4-d]pyrimidin-4-yl)piperazin-1-yl]methyl}benzonitrile], the IC50 in assay [1] is greater than 2000 nM; in assay [2], greater than 2000 nM; in assay [3], 50 to 500 nM.

Consider `Fc1cccc(Cl)c1CN1CCN(c2ncnc3[nH]nc(Br)c23)CC1` [Entry 56, 3-bromo-4-{4-[(2-chloro-6-fluorophenyl)methyl]piperazin-1-yl}-1H-pyrazolo[3,4-d]pyrimidine], for which the 50% inhibitory concentration (IC50) in assay [1] was greater than 2000 nM; in assay [2], greater than 2000 nM; in assay [3], 50 to 500 nM.

On to `CC(c1ccccc1)N1CCN(c2ncnc3[nH]nc(Br)c23)CC1` (stereo not drawn) [Entry 57, 3-bromo-4-[4-(1-phenylethyl)piperazin-1-yl]-1H-pyrazolo[3,4-d]pyrimidine], for which the values for the half-inhibitory concentration (IC50) in assay [1], in assay [2] and in assay [3] were greater than 2000 nM, greater than 2000 nM and 50 to 500 nM, respectively.

Take `Brc1n[nH]c2ncnc(N3CCN(Cc4ccncc4)CC3)c12` [Entry 58, 3-bromo-4-[4-(pyridin-4-ylmethyl)piperazin-1-yl]-1H-pyrazolo[3,4-d]pyrimidine]: the IC50 in assay [1] was greater than 2000 nM; in assay [2], greater than 2000 nM; in assay [3], 50 to 500 nM.

`Brc1n[nH]c2ncnc(N3CCN(Cc4cccnc4)CC3)c12` [Entry 60, 3-bromo-4-[4-(pyridin-3-ylmethyl)piperazin-1-yl]-1H-pyrazolo[3,4-d]pyrimidine]: the figures for the IC50 in assay [1], in assay [2] and in assay [3] were greater than 2000 nM, greater than 2000 nM and 50 to 500 nM, respectively.

Regarding `COc1ccc(CN2CCN(c3ncnc4[nH]nc(Br)c34)CC2)c(OC)c1OC` [Entry 61, 3-bromo-4-(4-{[2,3,4-tris(methyloxy)phenyl]methyl}piperazin-1-yl)-1H-pyrazolo[3,4-d]pyrimidine], the IC50 is greater than 2000 nM in assay [1], greater than 2000 nM in assay [2] and 50 to 500 nM in assay [3].

For `Brc1n[nH]c2ncnc(N3CCN(Cc4cccc(OCc5ccccc5)c4)CC3)c12` [Entry 62, 3-bromo-4-[4-({3-[(phenylmethyl)oxy]phenyl}methyl)piperazin-1-yl]-1H-pyrazolo[3,4-d]pyrimidine], the half-maximal inhibitory concentration (IC50) in assay [1] was greater than 2000 nM; in assay [2], greater than 2000 nM; in assay [3], 50 to 500 nM.

Turning to `Brc1n[nH]c2ncnc(N3CCN(Cc4cccc5ccccc45)CC3)c12` [Entry 63, 3-bromo-4-[4-(naphthalen-1-ylmethyl)piperazin-1-yl]-1H-pyrazolo[3,4-d]pyrimidine], the IC50 in assay [1] was greater than 2000 nM; in assay [2] it was greater than 2000 nM; in assay [3] it was 50 to 500 nM.
